The record followed here is US20190083482A1, “PRMT5 INHIBITORS AND USES THEREOF” (Epizyme, Inc., priority 2017, published 2019).

The target of assay [1] is T1, PRMT5/MEP50 (Homo sapiens, UniProt O14744).
T1 construct: Flag-PRMT5; made in house; host or cells: Spodoptera frugiperda (SF9) insect cells, baculovirus
Briefly: PRMT5 Biochemical Assay (PRMT5/MEP50 enzyme assay on peptide substrate, 3H-SAM Flashplate). The settings on record: PRMT5/MEP50 4 nM, 3H-SAM 75 nM, peptide 40 nM. The text has this: S-adenosylmethionine (SAM), S-adenosylhomocysteine (SAH), bicine, KCl, Tween20, dimethylsulfoxide (DMSO), bovine skin gelatin (BSG), and Tris(2-carboxyethyl)phosphine hydrochloride solution (TCEP) were purchased from Sigma-Aldrich at the highest level of purity possible. ^3H-SAM was purchase from American Radiolabeled Chemicals with a specific activity of 80 C1/mmol. 384-well streptavidin Flashplates were purchased from PerkinElmer.
Peptide representative of human histone H4 residues 1-15 was synthesized with a C-terminal linker-affinity tag motif and a C-terminal amide cap by 21st Century Biochemicals.
The amplified genes were sublconed into pENTR/D/TEV (Life Technologies) and subsequently transferred by Gateway™ attL×attR recombination to pDEST8 baculvirus expression vector (Life Technologies).
Protein over-expression was accomplished by infecting exponentially growing Spodoptera frugiperda (SF9) cell culture at 1.2×10^6 cell/ml with a 5000 fold dilution of BIIC stock. Infections were carried out at 27° C. for 72 hours, harvested by centrifugation, and stored at −80° C. for purification.
Flag-PRMT5/6His-MeP50 was eluted with 300 mM Imidazole in the same buffer.
General Procedure for PRMT5/MEP50 Enzyme Assays on Peptide Substrates.
The assays were all performed in a buffer consisting of 20 mM Bicine (pH=7.6), 1 mM TCEP, 0.005% BSG, and 0.002% Tween20, prepared on the day of use. […] DMSO (1 ul) was added to Columns 11, 12, 23, 24, rows A-H for the maximum signal control and 1 ul of SAH, a known product and inhibitor of PRMT5/MEP50, was added to columns 11, 12, 23, 24, rows I-P for the minimum signal control. A cocktail (40 ul) containing the PRMT5/MEP50 enzyme and the peptide was added by Multidrop Combi (Thermo-Fisher). The compounds were allowed to incubate with PRMT5/MEP50 for 30 min at 25 degrees Celsius, then a cocktail (10 ul) containing ^3H-SAM was added to initiate the reaction (final volume=51 ul). […] The assays were stopped by the addition of non-radioactive SAM (10 ul) to a final concentration of 600 uM, which dilutes the ^3H-SAM to a level where its incorporation into the peptide substrate is no longer detectable. 50 ul of the reaction in the 384-well polypropylene plate was then transferred to a 384-well Flashplate and the biotinylated peptides were allowed to bind to the streptavidin surface for at least 1 hour before being washed three times with 0.1% Tween20 in a Biotek ELx405 plate washer. The plates were then read in a PerkinElmer TopCount plate reader to measure the quantity of ^3H-labeled peptide bound to the Flashplate surface, measured as disintegrations per minute (dpm) or alternatively, referred to as counts per minute (cpm).
Where dpm=disintegrations per minute, cmpd=signal in assay well, and min and max are the respective minimum and maximum signal controls.
Where top and bottom are the normally allowed to float, but may be fixed at 100 or 0 respectively in a 3-parameter fit. The Hill Coefficient normally allowed to float but may also be fixed at 1 in a 3-parameter fit. Y is the % inhibition and X is the compound concentration.

Assay [2] deals with symmetric di-methyl arginine in Z-138 cells. As to the kind of experiment: Z-138 Methylation Assay (In Cell Western for symmetric di-methyl arginine). The format is cell-based. The settings on record: Homo sapiens, 96 hours incubation, read-out: ICW EC50. The text has this:
Z-138 suspension cells were purchased from ATCC (American Type Culture Collection, Manassas, Va.). RPMI/Glutamax medium, penicillin-streptomycin, heat inactivated fetal bovine serum, and D-PBS were purchased from Life Technologies, Grand Island, N.Y., USA. Odyssey blocking buffer, 800 CW goat anti-rabbit IgG (H+L) antibody, and Licor Odyssey infrared scanner were purchased from Licor Biosciences, Lincoln, Nebr., USA. Symmetric di-methyl arginine antibody was purchased from EMD Millipore, Billerica, Mass., USA. 16% Paraformaldehyde was purchased from Electron Microscopy Sciences, Hatfield, Pa., USA.
Z-138 suspension cells were maintained in growth medium (RPMI 1640 supplemented with 10% v/v heat inactivated fetal bovine serum and 100 units/mL penicillin-streptomycin) and cultured at 37° C. under 5% CO2.
Cell Treatment, in Cell Western (ICW) for Detection of Symmetric Di-Methyl Arginine and DNA Content.
Z-138 cells were seeded in assay medium at a concentration of 50,000 cells per mL to a 384-well cell culture plate with 50 μL per well. Compound (100 nL) from 384 well source plates was added directly to 384 well cell plate. Plates were incubated at 37° C., 5% CO2 for 96 hours. After four days of incubation, 40 μL of cells from incubated plates were added to poly-D-lysine coated 384 well culture plates (BD Biosciences 356697). Plates were incubated at room temperature for 30 minutes then incubated at 37° C., 5% CO2 for 5 hours. After the incubation, 40 μL per well of 8% paraformaldehyde in PBS (16% paraformaldahyde was diluted to 8% in PBS) was added to each plate and incubated for 30 minutes. Plates were transferred to a Biotek 405 plate washer and washed 5 times with 100 μL per well of wash buffer (1×PBS with 0.1% Triton X-100 (v/v)). Next 30 μL per well of Odyssey blocking buffer were added to each plate and incubated 1 hour at room temperature. Blocking buffer was removed and 20 μL per well of primary antibody was added (symmetric di-methyl arginine diluted 1:100 in Odyssey buffer with 0.1% Tween 20 (v/v)) and plates were incubated overnight (16 hours) at 4° C. Plates were washed 5 times with 100 μL per well of wash buffer. Next 20 μL per well of secondary antibody was added (1:200 800 CW goat anti-rabbit IgG (H+L) antibody, 1:1000 DRAQ5 (Biostatus limited) in Odyssey buffer with 0.1% Tween 20 (v/v)) and incubated for 1 hour at room temperature. The plates were washed 5 times with 100 μL per well wash buffer then 1 time with 100 μL per well of water. Plates were allowed to dry at room temperature then imaged on the Licor Odyssey machine which measures integrated intensity at 700 nm and 800 nm wavelengths. Both 700 and 800 channels were scanned.
First, the ratio for each well was determined by:
Each plate included fourteen control wells of DMSO only treatment (minimum inhibition) as well as fourteen control wells for maximum inhibition treated with 3 μM of a reference compound (Background wells). The average of the ratio values for each control type was calculated and used to determine the percent inhibition for each test well in the plate. Reference compound was serially diluted three-fold in DMSO for a total of nine test concentrations, beginning at 3 μM. Percent inhibition was determined and IC50 curves were generated using triplicate wells per concentration of compound.

The test system of assay [3] is Z-138 cell line. As to the kind of experiment: Z-138 Proliferation Assay (Cell Titer Glo). The format is cell-based. The following applies: Homo sapiens, 120 h; Z-138 cells, 5 days incubation, top concentration 20 μM. The text has this:
Z-138 Proliferation Assay
Z-138 suspension cells were purchased from ATCC (American Type Culture Collection, Manassas, Va.). RPMI/Glutamax medium, penicillin-streptomycin, heat inactivated fetal bovine serum were purchased from Life Technologies, Grand Island, N.Y., USA. V-bottom polypropylene 384-well plates were purchased from Greiner Bio-One, Monroe, N.C., USA. Cell culture 384-well white opaque plates were purchased from Perkin Elmer, Waltham, Mass., USA. Cell-Titer Glo® was purchased from Promega Corporation, Madison, Wis., USA. SpectraMax M5 plate reader was purchased from Molecular Devices LLC, Sunnyvale, Calif., USA.
Z-138 suspension cells were maintained in growth medium (RPMI 1640 supplemented with 10% v/v heat inactivated fetal bovine serum and cultured at 37° C. under 5% CO2. Under assay conditions, cells were incubated in assay medium (RPMI 1640 supplemented with 10% v/v heat inactivated fetal bovine serum and 100 units/mL penicillin-streptomycin) at 37° C. under 5% CO2.
For the assessment of the effect of compounds on the proliferation of the Z-138 cell line, exponentially growing cells were plated in 384-well white opaque plates at a density of 10,000 cells/ml in a final volume of 50 μl of assay medium. A compound source plate was prepared by performing triplicate nine-point 3-fold serial dilutions in DMSO, beginning at 10 mM (final top concentration of compound in the assay was 20 μM and the DMSO was 0.2%). A 100 nL aliquot from the compound stock plate was added to its respective well in the cell plate. […] After addition of compounds, assay plates were incubated for 5 days at 37° C., 5% CO2, relative humidity >90%. Cell viability was measured by quantitation of ATP present in the cell cultures, adding 35 μl of Cell Titer Glo® reagent to the cell plates. Luminescence was read in the SpectraMax M5 microplate reader. The concentration of compound inhibiting cell viability by 50% was determined using a 4-parametric fit of the normalized dose response curves.

T1 sequence (O14744 with tags, fused parts or gaps): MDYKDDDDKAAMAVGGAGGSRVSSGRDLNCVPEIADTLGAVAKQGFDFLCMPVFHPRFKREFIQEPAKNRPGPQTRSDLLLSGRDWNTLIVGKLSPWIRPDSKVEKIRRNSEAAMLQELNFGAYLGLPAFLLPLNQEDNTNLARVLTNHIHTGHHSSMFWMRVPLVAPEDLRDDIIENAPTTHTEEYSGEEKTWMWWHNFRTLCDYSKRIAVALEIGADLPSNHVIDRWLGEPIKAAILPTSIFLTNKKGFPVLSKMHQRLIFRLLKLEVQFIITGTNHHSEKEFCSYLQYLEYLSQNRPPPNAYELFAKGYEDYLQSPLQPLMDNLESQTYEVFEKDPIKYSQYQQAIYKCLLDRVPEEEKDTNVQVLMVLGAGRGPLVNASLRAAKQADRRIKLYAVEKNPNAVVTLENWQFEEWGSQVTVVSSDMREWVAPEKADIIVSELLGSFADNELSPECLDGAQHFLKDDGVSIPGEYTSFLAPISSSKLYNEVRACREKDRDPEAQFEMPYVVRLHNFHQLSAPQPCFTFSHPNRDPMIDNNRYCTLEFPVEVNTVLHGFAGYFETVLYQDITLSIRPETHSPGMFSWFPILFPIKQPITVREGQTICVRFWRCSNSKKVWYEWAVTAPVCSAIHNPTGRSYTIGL
T1 sequence (Q9BQA1 with tags, fused parts or gaps partner limits assumed): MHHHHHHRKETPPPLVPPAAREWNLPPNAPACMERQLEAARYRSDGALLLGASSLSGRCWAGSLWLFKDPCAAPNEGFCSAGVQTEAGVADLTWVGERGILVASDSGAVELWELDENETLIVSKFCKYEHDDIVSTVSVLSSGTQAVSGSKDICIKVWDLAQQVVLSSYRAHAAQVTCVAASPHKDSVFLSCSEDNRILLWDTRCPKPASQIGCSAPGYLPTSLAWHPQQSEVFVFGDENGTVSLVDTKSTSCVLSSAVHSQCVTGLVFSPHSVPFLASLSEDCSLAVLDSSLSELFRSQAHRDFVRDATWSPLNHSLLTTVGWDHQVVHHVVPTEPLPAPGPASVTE

In the case of `O=C(CCc1nc2ccccc2[nH]1)NC[C@H](O)CN1CCc2ccccc2C1` [Compound 175, (S)-3-(1H-benzo[d]imidazol-2-yl)-N-(3-(3,4-dihydroisoquinolin-2(1H)-yl)-2-hydroxypropyl)propanamide], the half-inhibitory concentration (IC50) (commonly the concentration that inhibits the measured activity by half) in assay [1] is < 100 nM. Also, the EC50 (usually the concentration that produces a half-maximal response) was < 100 nM in assay [2] and 101 to 1000 nM in assay [3].
